# Columns and labels:
# [1] = test system: mouse adult proliferating hepatocytes; details: U0126 treated mouse adult proliferating hepatocytes
# Excerpt: Total RNA was qualified with Life Technologies Qubit fluorometer (Q32857) and Agilent Bioanalyzer (G2940CA). Total RNA was used to prepare indexed cDNA libraries with the Ligation Mediated Sequencing (LM-Seq) protocol (Hou, Z et al. 2015). Final indexed cDNA libraries were pooled with forty-four uniquely indexed LM-Seq cDNA libraries per lane and sequenced on an Illumina HiSeq 3000.
# We derived SHPCs from adult mouse liver and treated them with the MAPK inhibitor U0126.
# [2] = test system: ESC-hepatocyte derived SHPCs; details: SHPC medium, co-cultured with MEFs and U0126; QPCR, FIG. 6
# Excerpt: We treated the ESC-hepatocyte derived SHPCs in SHPC medium and co-cultured with MEFs and U0126. We FAC sorted the albumin reporter expressing hepatocytes and performed QPCR.
smiles,measurement,setting,value
N#CC(=C(/N)Sc1ccccc1N)/C(C#N)=C(\N)Sc1ccccc1N [U0126],CYP1A2 gene expression (RNA-Seq),[1]; vehicle 1,78
same,RARA gene expression (RNA-Seq),[1]; vehicle 1,5
same,AHR gene expression (RNA-Seq),[1]; vehicle 4,11
same,UGT1A1 gene expression (RNA-Seq),[1]; vehicle 6,54
same,CYP3A16 (human fetal CYP3A4) gene expression (RNA-Seq),[1]; vehicle 15,2
same,RXRA gene expression (RNA-Seq),[1]; vehicle 28,40
same,UGT1A6A gene expression (RNA-Seq),[1]; vehicle 28,189
same,CYP1A1 gene expression (RNA-Seq),[1]; vehicle 36,1447
same,APOH gene expression (RNA-Seq),[1]; vehicle 128,245
same,HNF4A gene expression (RNA-Seq),[1]; vehicle 254,340
same,APOB gene expression (RNA-Seq),[1]; vehicle 332,567
same,CYP3A11 (human adult CYP3A4) gene expression (RNA-Seq),[1]; vehicle 496,563
same,Albumin gene expression (RNA-Seq),[1]; vehicle 6523,11379
same,increase in CYP3A expression,[2],3 fold
same,increase in albumin expression,[2],2 fold
